Experimental data from patent US5519028A, “Antiviral preparations” (priority 1992, dated 1996).
Read-outs that look alike come from different tables or passages of the source.

What was measured:
[1] = test system: H-9 cells; experiment: Multiplication of non-infected H-9 cells; format: cell-based; settings: 30 and 60 μg/ml
[2] = Sub-chronic administration toxicity in rats; format: in vivo, male and female Sprague-Dawley rats (OPA); settings: 530 and 2120 mg/kg/day
From the text: No lesions of the liver, kidneys, duodenum, myocardia, spleen, thyroid and parathyroid glands, testicles or ovaries were visible by microscope.

[3] = test system: MT4 cells; experiment: Cellular toxicity in MT4 cells; format: cell-based; settings: d3, duplicate
[4] = test system: HIV-1 TIG2 (HIV-1AIDS); experiment: HIV P24 production in PBMC, viral inoculum pretreated, isolate TIG2; format: cell-based; settings: virus pretreated with 30 or 60 μg/ml
Procedure: (§1) To test the efficacy of flavopereirine on the infectious capability of HIV-1, two experiments were conducted. […] After 2 hours of incubation, the cells were rinsed twice and cultivated in 1 ml of RPMI 1640 containing 20 IU of IL-2 per ml (Boehringer […], Germany), 2 μg of Polybrene (hexadimethrine bromide) per ml (Sigma, St. Louis, Mo., USA) and 10^-7 IU of goat antiserum acting against human alpha interferon (Janssen, Beerse, Belgium) per ml. Half the culture was changed after 72 hours, and thereafter every 48 hours until the 30th day. […] The surface material of the culture was tested by an immuno-enzymatic (ELISA) assay for the production of antigen P24 (Abbott, Chicago, Ill., USA) and the optical density (OD) of the resulting color was converted into P24 concentration from the slope of a standard nomogram, as described by W. Lu and J. -M. Andrieu, Journal of Virology, 66(1): 334-340 (1992).

[5] = test system: IL-1β; experiment: IL-1β production by monocytes of normal donors; format: cell-based, human
Procedure: (§2) The effects of flavopereirine on the production of primary (IL-1β and TNF-α) and secondary (IL-6) cytokines by monocytes was also tested. The adhesive monocytes used were taken from the blood of two types of donors:
(§3) Normal donors--voluntary blood donors who attended the blood bank of the Pitie-Salpetriere Hospital, Paris, France; and
(§4) Product H was not used in these experiments at a rate of more than 20 μg/ml water, since above this rate, net toxicity could have been produced.

[6] = test system: TNF-α; experiment: TNF-α production by monocytes of normal donors; format: cell-based, human
Procedure: as §2, §3, §4

[7] = test system: TNF-α; experiment: TNF-α production by monocytes of HIV-positive donors; format: cell-based, human
Procedure: as §2
(§5) HIV-positive donors from medical consultations. These individuals were in the early stages of HIV infection and, at the moment of taking the blood, were not undergoing any treatment. The risk factors involved were intravenous drug abuse for six of the donors, sexual transmission for three and blood transfusion (in Zaire) for one patient. No correlation was found between the risk factors and the results of the experiments.
(§6) The response of the monocytes taken from the various HIV-positive donors was tested in terms of spontaneous response. The quantities of cells received were low (the donors were not affected by cytapheresy), and the experiments were therefore limited by the number of cells available.

[8] = test system: HIV; settings: human, in vivo
[9] = test system: HIV-1; experiment: microbe, parasite or virus in culture; settings: Human immunodeficiency virus 1, PBMC, read-out: concentration totally inhibiting replication of HIV-1
[10] = test system: PBMC stimulated by PHA (blastic); experiment: Cytotoxicity (viability) in blastic PBMC; format: cell-based, human; settings: 30 or 60 μg/ml
Procedure: (§7) To evaluate the cytotoxicity of flavopereirine in resting PBMC and in blast cells, prewashed fresh and blastic PBMC taken from five randomly-selected,healthy, HIV-negative donors were treated in triplicate with 30 or 60 μg flavopereirine per ml of alcoholic solution for two hours, After washing twice, the cells were placed in culture in cellular culture medium until day 15. The viability of the cells of each group was examined by exclusion coloring with trypan blue and by quantimetric analysis. Cultures of HIV-negative PBMC without flavopereirine (compound H) were used as controls.

[11] = Cytotoxicity (viability) in blastic PBMC; format: cell-based, human; settings: human, pha-stimulated pbmc, blastic, read-out: Viability of PBMC after exposure; for viability at 72 h: d3; for viability at 168 h: d7; for viability at 264 h: d11; for viability at 312 h: d13; for viability at 360 h: d15
Procedure: as §7

[12] = test system: HIV-1 BRE1 (HIV-1Asym.); experiment: HIV P24 production in PBMC, viral inoculum pretreated, isolate BRE1; format: cell-based; settings: virus pretreated with 30 or 60 μg/ml
Procedure: as §1

[13] = test system: interleukin-6; experiment: IL-6 production by monocytes of normal donors; format: cell-based, human
Procedure: as §2
Normal donors--voluntary blood donors who attended the blood bank of the Pitie-Salpetriere Hospital, Paris, France; and […]

[14] = test system: human monocytes; experiment: Cytotoxicity in human monocytes; format: cell-based; settings: four donors
Procedure: as §4

[15] = Cytotoxicity in human monocytes; format: cell-based; settings: human, monocytes
Procedure: as §4

[16] = test system: HIV-1 BRE1 (HIV-1Asym.); experiment: HIV P24 production, target PBMC pretreated, isolate BRE1; format: cell-based; settings: for Post-infection production of HIV P24: PBMC + 30 μg/ml 2 hours
Procedure: as §1

[17] = test system: IL-1β; experiment: IL-1β production by monocytes of HIV-positive donors; format: cell-based, human
Procedure: as §2, §5, §6

CCc1ccc2c3[nH]c4ccccc4c3cc[n+]2c1 [flavopereirine]
multiplication of non-infected cells [1]: does not affect the multiplication of non-infected cells
alteration in globular blood count [2]: Neither was any alteration in the globular blood count noted
alterations in body weight or feeding [2]: no alterations were noted in either body weight or feeding
hepatic and renal functions [2]: remained normal
lesions of liver, kidneys, duodenum, myocardia, spleen, thyroid, parathyroid, testicles, ovaries ([2]; microscope): No lesions
cellular toxicity ([3]; 100 μg/ml, Table I): cellular toxicity
cellular toxicity ([3]; 100 μg/ml, Table I, listed as H): Tox
cellular toxicity ([3]; 100 μg/ml, Table II): Tox
cellular toxicity ([3]; 400 μg/ml, Table I): cellular toxicity
cellular toxicity ([3]; 400 μg/ml, Table I, listed as H): Tox
infection of target PBMC [4]: completely prevented the infection of target PBMC
direct activity on production of IL-1β ([5]; donor #10, 10 and 20 μg/ml): responded very well
direct activity on production of IL-1β ([5]; donors #3, 5 and 6, dose effect, marginal): Increase in the production of IL-1β
indirect activity on production of IL-1β ([5]; response to LPS or IFN-γ+LPS, p<0.05): no significant modification
direct activity on production of TNF-α ([6]; donor 7, one dose only): Increase in the production of TNF-α
indirect activity on production of TNF-α ([6]; stimulated monocytes, heavy dosage only (20 βg/ml as printed), p<0.05): sharp reduction in production
indirect activity on production of TNF-α ([7]; 20 μg/ml only, p<0.05): almost total reduction in the production of TNF-α
direct activity on base production of TNF-α ([7]; HIV-positive donors): No modification on the base production was observed
CD2 [8]: Increase
CD4 [8]: Increase
CD4+ cells [8]: significant increase
CD8 [8]: Increase
CD19 [8]: Increase
CD19+ cells [8]: significant increase
Karnofsky's index [8]: ~100%
blood or renal toxicity [8]: Neither blood nor renal toxicity was observed
degradation in CDC classification [8]: No degradation in the CDC classification
effect on viral infectional capacity of HIV [8]: significant inhibitory effect on the viral infectional capacity of HIV
hemoglobin [8]: Increase
infections [8]: no infections were noticed
microglobulin beta-2 [8]: Increase
modification in ALAT or ASAT [8]: nor was there any significant modification in ALAT or ASAT
patients with negative decline in CD4+ reversed [8]: 18 out of 19
physical and professional activity [8]: remained completely normal
red cells [8]: Increase
side effects [8]: Side effects were few, occurring only in the first three months
total lymphocyte mass [8]: Increase
toxic or side effects ([8]; po): devoid of toxic or side effects
IC100 [9]: 60 to 100 µg/mL
viability of blastic cells [10]: appeared to be independent of exposure to compound H
viability at 72 h ([11]; 30 μg/ml 2 hrs): 88 ± 3%
viability at 168 h ([11]; 30 μg/ml 2 hrs): 35 ± 7%
viability at 264 h ([11]; 30 μg/ml 2 hrs): 71 ± 3%
viability at 312 h ([11]; 30 μg/ml 2 hrs): 76 ± 9%
viability at 360 h ([11]; 30 μg/ml 2 hrs): 69 ± 8%
viability at 72 h ([11]; 60 μg/ml 2 hrs): 79 ± 4%
viability at 168 h ([11]; 60 μg/ml 2 hrs): 74 ± 5%
viability at 264 h ([11]; 60 μg/ml 2 hrs): 70 ± 4%
viability at 312 h ([11]; 60 μg/ml 2 hrs): 71 ± 8%
viability at 360 h ([11]; 60 μg/ml 2 hrs): 63 ± 7%
infection of target PBMC [12]: completely prevented the infection of target PBMC
activity on cytokine production ([13]; doses of less than 5 μg/ml, first two normal donors, cytokine not specified): inactive
direct activity on production of interleukin-6 ([13]; normal donors): No modification in response was observed
indirect activity on production of IL-6 ([13]; stimulated monocytes, dose-dependent, never total, P<0.05): sharp reduction in the production of IL-6
cytotoxicity ([14]; 30, 50, 100 μg/ml): virtually total cytotoxicity
cytotoxicity ([14]; above 30 μg/ml): 100 µg/mL
cytotoxicity ([15]; 30 μg/ml, four donors): > 40%
MCC ([15]; healthy and asymptomatic HIV-positive donors, read-out: toxic dosage on human monocytes in vitro): > 20 µg/mL
Post-infection production of HIV P24 ([16]; d3): 113 ± 7 pg/mL
Post-infection production of HIV P24 ([16]; d5): > 1500 pg/mL
inhibition of productive viral infections ([16]; target PBMC pretreated with 60 μg/ml only): complete inhibition of productive viral infections
direct activity on base production of IL-1β ([17]; HIV-positive donors): No modification on the base production was observed
indirect activity on production of interleukin-1 ([17]; three dosages, p<0.05): absence of any impact on the production of interleukin-1
